Assay [1] has as its target T1, FPTase (Homo sapiens, UniProt P49354+P49356). Nature of the assay: in vitro FTase Inhibition Assay, H-Ras used as substrate for farnesylation. It counts as biochemical. The method, then: (§1) Enzyme test procedure: FPTase inhibition in vitro assay was performed according to James, G. L., Brown, M. S., and Goldstein, J. L., Methods in Enzymology, 1995, 255, 38-46; and Garcia, M. A., et al., J. Biol. Chem., 1993, 268, 18415-18420.
(§2) Materials—Purified FPTase (Moomaw, J. F. and Casey, P. J., J. Biol. Chem., 1992, 267, 17438-17443), purified His6-Ras, inhibitor compounds at 10 mg/ml or 10 mM in 100% DMSO, ^3H-FPP (50,000 dpm/pmol) Amersham, TCA/SDS (6%/2%), TCA (6%), Glass fiber filters ([…]), vacuum manifold or 96 well filtration plates.
(§3) Methods—1. Dilute FPTase inhibitors from stock solutions to 2.5× in 2.5% DMSO, 10 mM DTT, 0.5% octyl-B-glucoside. 2. Solution #1 is added to FPTase reaction in a volume of […]. 3. Standard reaction mix, […], contains 50 mM Tris (7.5), 10 mM ZnCl2, 3 mM MgCl2, 20 mM KCl, 5 mM DTT, 0.2% octyl-B-glucoside, 1% DMSO, […] His6-Ras, 10 ng FPTase, and various concentrations of FPTase inhibitors. 4. Incubate for 30-90 min at 25° C. 5. Stop reactions with TCA/SDS (6%/2%), hold at 4° C. for 45-60 min. 6. Filter by manifold or 96 well plate, wash filter 3-5× with TCA (6%). 7. Add scintillant to filters, measure ^3H-FPP incorporation into Ras protein.
(§4) Analysis of Results—Percent inhibition by test compounds is determined by the following:
(§5) (cpm from precipitated Ras with test compounds)−(background cpm)×100=% inhibition.
(§6) (cpm from precipitated Ras without test compounds)−(background cpm)

For assay [2], the target named is T1, FPTase. Nature of the assay: in vitro FTase Inhibition Assay, K-Ras used as substrate for farnesylation. Type of assay: biochemical. As to conditions: Table I. The method, then: as §1, §2, §3, §4, §5, §6
Where [3] appears, read: Table II, read-out: IC50 (wi. H-Ras).

One may read the IC50 as the concentration that gives 50% inhibition.

Regarding `O=C1NC(=O)C(CCCC#Cc2cc(Cl)ccc2Cl)(S(=O)(=O)c2ccc(I)cc2)S1` (stereo not drawn) [Example 115, 5-[5-(2,5-Dichloro-phenyl)pent-4-ynyl]-5-(4-iodobenzenesulfonyl)-thiazolidine-2,4-dione], the IC50 was 12 to 320 nM in assay [1] (Table I, read-out: IC50 H-Ras*) and 160 to 230 nM in assay [2]. The like results for `COc1ccc(S(=O)(=O)C2(CCCC#Cc3cc(NC(=O)OCC(C)(C)C)ccc3C)SC(=O)N(C(=O)OCC(C)(C)C)C2=O)cc1` (stereo not drawn) [Example 230, Neopentyl 5-[(4-methoxyphenyl)sulfonyl]-5-[5-(2-methyl-5-{[(neopentyloxy)carbonyl]-amino}phenyl)pent-4-ynyl]-2,4-dioxo-1,3-thiazolidine-3-carboxylate] were, in that order, 3 to 3.5 nM and 20 to 500 nM. As for `COc1ccc(S(=O)(=O)C2(CCCC#Cc3ccc([N+](=O)[O-])cc3OC)SC(=O)NC2=O)cc1` (stereo not drawn) [Example 132, 5-(4-Methoxybenzenesulfonyl)-5-[5-(2-methoxy-4-nitrophenyl)pent-4-ynyl]thiazolidine-2,4-dione], the IC50 fell in the range of 41 to 73 nM in assay [1] (Table I, read-out: IC50 H-Ras*) and 210 to 1000 nM in assay [2]. The like results for `Cc1ccc(C(=O)NC(C)(C)C)cc1C#CCCCC1(S(=O)(=O)c2ccc(I)cc2)SC(=O)NC1=O` (stereo not drawn) [Example 147, N-tert-Butyl-3-{5-[5-(4-iodobenzenesulfonyl)-2,4-dioxothiazol-idin-5-yl]-pent-1-ynyl}-4-methyl-benzamide] were, in that order, 6.8 to 210 nM and 80 to 100 nM. Regarding `COc1ccc(S(=O)(=O)C2(CCCC#Cc3cc(NC(=O)Oc4ccc(Cl)cc4)ccc3C)SC(=O)NC2=O)cc1` (stereo not drawn) [Example 177, (3-{5-[5-(4-Methoxybenzenesulfonyl)-2,4-dioxothiazolidin-5-yl]pent-1-ynyl}-4-methylphenyl)carbamic Acid 4-Chloro-phenyl Ester], the IC50 in assay [1] (Table I, read-out: IC50 H-Ras*) was in the range of 11 to 32 nM; in assay [2] it was 86 to 100 nM. With `CCCCOC(=O)Nc1ccc(C)c(C#CCCCC2(S(=O)(=O)c3ccc(OC)cc3)SC(=O)NC2=O)c1` (stereo not drawn) [Example 181, (3-(5-[5-(4-Methoxybenzenesulfonyl)-2,4-dioxothiazolidin-5-yl]pent-1-ynyl}-4-methylphenyl)carbamic Acid Butyl Ester], the IC50 lay within 10 to 32 nM in assay [1] (Table I, read-out: IC50 H-Ras*) and 100 to 130 nM in assay [2]. The like results for `COc1ccc(S(=O)(=O)C2(CCCC#Cc3cc(F)cc([N+](=O)[O-])c3)SC(=O)NC2=O)cc1` (stereo not drawn) [Example 133, 5-[5-(3-Fluoro-5-nitrophenyl)pent-4-ynyl]-5-(4-methoxybenzenesulfonyl)-thiazolidine-2,4-dione] were, in that order, 40 to 200 nM and 54 to 1000 nM.

Consider `COc1ccc(S(=O)(=O)C2(CCCC#Cc3cc(NC(=O)OCC(C)C)ccc3C)SC(=O)NC2=O)cc1` (stereo not drawn) [Example 182, (3-{5-(5-(4-Methoxybenzenesulfonyl)-2 ,4-dioxothiazolidin-5-yl]pent-1-ynyl}-4-methylphenyl)carbamic Acid Isobutyl], for which the IC50 in assay [1] (Table I, read-out: IC50 H-Ras*) lay in the range of 5 to 10 nM; in assay [2], 32 to 56 nM. For the compound `O=C1NC(=O)C(CCCC#Cc2ccc(Cl)cc2)(S(=O)(=O)c2ccc([N+](=O)[O-])cc2)S1` (stereo not drawn) [Example 110, 5-[5-(4-Chlorophenyl)pent-4-ynyl]-5-(4-nitrobenzenesulfonyl)thiazolidine-2,4-dione], the IC50 in assay [1] (Table I, read-out: IC50 H-Ras*) was 400 nM; in assay [2] it was 7000 nM.

On to `O=C1NC(=O)C(CCCC#Cc2ccc(Cl)cc2)(S(=O)(=O)c2cccc3cccnc23)S1` (stereo not drawn) [Example 109, 5-[5-(4-Chlorophenyl)pent-4-ynyl]-5-(quinoline-8-sulfonyl)thiazolidine-2,4-dione], for which the IC50 in assay [1] (Table I, read-out: IC50 H-Ras*) was 65 to 130 nM; in assay [2], 1400 to 2100 nM.

With “5-(4-Iodobenzenesulfonyl)-5-[5-(2-methyl-4-nitrophenyl)pent-4-ynyl]-thiazolidine-2,4-dione [Example 131]”, the IC50 in assay [1] (Table I, read-out: IC50 H-Ras*) lay within 6 to 32 nM; in assay [2], 80 to 310 nM.

As for `COc1ccc(S(=O)(=O)C2(CCCC#Cc3cc(NC(=O)OC(C)(C)C)ccc3C)SC(=O)NC2=O)cc1` (single isomer, unassigned; less polar) [Example 222, Enantiomer of (3-{5-[5-(4-Methoxybenzenesulfonyl)-2,4-dioxothiazolidin-5-yl]pent-1-ynyl}-4-methylphenyl)carbamic Acid tert-Butyl Ester (Less Polar)], the IC50 in assay [1] (Table I, read-out: IC50 H-Ras*) was found to be 3.3 nM; in assay [2] it was 33 nM. As to `COc1ccc(S(=O)(=O)C2(CCCC#Cc3cc(NC(=O)OC(C)(C)C)ccc3C)SC(=O)NC2=O)cc1` (single isomer, unassigned; more polar) [Example 223, Enantiomer of (3-{5-[5-(4-Methoxybenzenesulfonyl)-2,4-dioxothiazolidin-5-yl]pent-1-ynyl}-4-methylphenyl)carbamic Acid tert-Butyl Ester (More Polar)], the IC50 in assay [1] (Table I, read-out: IC50 H-Ras*) is 63 nM; in assay [2] it was greater than 1000 nM. As to `COc1ccc(S(=O)(=O)C2(CCCC#Cc3cc(NC(=O)OCC(C)(C)C)ccc3C)SC(=O)NC2=O)cc1` (stereo not drawn) [Example 180, (3-(5-[5-(4-Methoxybenzenesulfonyl)-2,4-dixothiazolidin-5-yl]pent-1-ynyl}-4-methylphenyl)carbamic Acid Neopentyl Ester], the IC50 in assay [1] (Table I, read-out: IC50 H-Ras*) was in the range of 2 to 32 nM; in assay [2], 7 to 90 nM.

For the compound `COc1ccc(S(=O)(=O)C2(CCCC#Cc3cccc(N)c3)SC(=O)NC2=O)cc1` (stereo not drawn) [Example 220, 5-[5-(3-Aminophenyl)pent-4-ynyl]-5-(4-methoxybenzenesulfonyl)-thiazolidine-2,4-dione], the IC50 in assay [1] (Table I, read-out: IC50 H-Ras*) is 90 nM; in assay [2] it was 3000 nM. The corresponding values for `COc1ccc(S(=O)(=O)C2(CCCC#Cc3ccc(Cl)cc3C)SC(=O)NC2=O)cc1` (stereo not drawn) [Example 142, 5-[5-(4-Chloro-2-methylphenyl)pent-4-ynyl]-5-(4-methoxybenzene-sulfonyl)-thiazolidine-2,4-dione] are 17 to 30 nM and 40 to 1000 nM. The like results for `O=C1NC(=O)C(CCCC#Cc2ccc(Cl)cc2)(S(=O)(=O)c2ccc(F)cc2)S1` (stereo not drawn) [Example 105, 5-[5-(4-Chlorophenyl)pent-4-ynyl]-5-(4-fluorobenzenesulfonyl)thiazolidine-2,4-dione] were, in that order, 50 to 150 nM and 1500 to 1700 nM.

Regarding `O=C1NC(=O)C(CC#Cc2ccc(Cl)cc2)(S(=O)(=O)c2ccc(F)cc2)S1` (stereo not drawn) [Example 243, 5-[3-(4-Chloro-phenyl)-prop-2-ynyl]-5-(4-fluoro-benzenesulfonyl)-thiazolidine-2,4-dione], the IC50 in assay [1] (setting [3]) amounted to 300 nM. Regarding `O=C1NC(=O)C(CC#Cc2ccccc2Cl)(S(=O)(=O)c2ccccc2)S1` (stereo not drawn) [Example 258, 5-Benzenesulfonyl-5-[3-(2-chloro-phenyl)-prop-2-ynyl]-thiazolidine-2,4-dione], in assay [1] (setting [3]), the 50% inhibitory concentration (IC50) came out at 2000 nM.

With `O=C1NC(=O)C(CC#Cc2ccc(Cl)cc2)(S(=O)(=O)c2ccc(Br)cc2)S1` (stereo not drawn) [Example 245, 5-(4-Bromo-benzenesulfonyl)-5-[3-(4-chloro-phenyl)-prop-2-ynyl]-thiazolidine-2,4-dione], the IC50 in assay [1] (setting [3]) is 50 nM. In the case of `O=C1NC(=O)C(CC#Cc2ccc(F)cc2)(S(=O)(=O)c2ccc(Cl)cc2)S1` (stereo not drawn) [Example 255, 5-(4-Chloro-benzenesulfonyl)-5-[3-(4-fluoro-phenyl)-prop-2-ynyl]-thiazolidine-2,4-dione], the IC50 in assay [1] (setting [3]) was 150 nM. In the case of `O=C1NC(=O)C(CC#Cc2ccc(Cl)cc2)(S(=O)(=O)c2ccc3ccccc3c2)S1` (stereo not drawn) [Example 239, 5-[3-(4-Chloro-phenyl)-prop-2-ynyl]-5-(napthalene-2-sulfonyl)-thiazolidine-2,4-dione], the IC50 in assay [1] (setting [3]) was 700 nM.

These data come from patent publication US6605628B1, “Method of using 5-(arysulfonyl)-, 5-(arylsulfanyl)-and 5-(arylsulfanyl)thiazolidine-2,4-diones for inhibition of farnesyl-protein transferase” (Wyeth Holdings Corporation, priority 2001, dated 2003).
